Data: PubChem BioAssay (NCI)
Values joined by “and” are separate entries in the source; they are usually repeats but may differ in a detail not shown here. Equal values may be shown once.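 96-well plates; 48 h exposure; 5 concentrations. Endpoints by linear interpolation between flanking doses. Not reached: highest tested concentration assigned. At the GI50, growth is halved. TGI denotes the concentration required for complete inhibition of growth.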

Tests used:
Test in all cases: DTP human tumour cell line panel, 48 h
A549 NSCLC = system: A549 NSCLC
MCF7 breast = system: MCF7 breast
U251 CNS = system: U251 CNS
A498 renal = system: A498 renal
HCT-15 colon = system: HCT-15 colon
RXF 393 renal = system: RXF 393 renal
SF-539 CNS = system: SF-539 CNS
M14 melanoma = system: M14 melanoma
SK-MEL-2 melanoma = system: SK-MEL-2 melanoma
UO-31 renal = system: UO-31 renal

Row | Structure (SMILES) | GI50 (A549 NSCLC) [µM] | TGI (A549 NSCLC) [µM] | GI50 (MCF7 breast) [µM] | TGI (MCF7 breast) [µM] | GI50 (U251 CNS) [µM] | TGI (U251 CNS) | GI50 (A498 renal) [µM] | TGI (A498 renal) [µM] | GI50 (HCT-15 colon) [µM] | TGI (HCT-15 colon) [µM] | GI50 (RXF 393 renal) [µM] | TGI (RXF 393 renal) [µM] | GI50 (SF-539 CNS) [µM] | TGI (SF-539 CNS) [µM] | GI50 (M14 melanoma) [µM] | TGI (M14 melanoma) [µM] | GI50 (SK-MEL-2 melanoma) [µM] | TGI (SK-MEL-2 melanoma) [µM] | TGI (UO-31 renal) [µM] | GI50 (UO-31 renal) [µM]
1 | O=[N+]([O-])c1ccc(N=Nc2c(Cl)cc(O)cc2Cl)cc1 | 2.88 | 11.8 | 1.17 | 6.43 | 0.977 | 11.2 µM | 1.73 | 4.6 | 2.02 | 10.3 | 2.51 | 13.5 | 3.1 | 30.6 | 1.95 | 4.86 | 1.66 | 4.39 | – | –
2 | O=C1NC2(CCCC2)C2CCCCC12O (centres undefined) | – | > 100 | – | – | – | > 100 µM | – | > 100 | – | > 100 | – | > 100 | – | > 100 | – | > 100 | – | > 100 | > 100 | –
3 | CC(=O)OC1=C2CC[C@@H]3C(CC[C@@]4(C)C3CC[C@@H]4OC(C)=O)[C@@]2(C)CC(C#N)C1=O (some centres undefined) | – | > 100 | – | – | – | 90.5 µM | – | 9.59 | – | > 100 | – | > 100 | – | > 100 | – | > 100 | – | 59.4 | > 100 | –
4 | COc1ccccc1NC(=O)C1=C(C)NC(C)=C(C(=O)Nc2ccccc2OC)C1c1ccccc1Cl | – | > 100 | – | – | – | > 100 µM | – | > 100 | – | > 100 | – | – | – | > 100 | – | > 100 | – | > 100 | > 100 | –
5 | COc1ccc(C[C@]23CCC(=O)N2CCc2cc(OC)c(O)cc23)cc1O | – | > 100 | – | – | – | – | – | > 100 | – | > 100 | – | > 100 | – | > 100 | – | > 100 | – | – | > 100 | –
6 | OCCN(CCO)c1nc(N2CCCCC2)c2nc(N(CCO)CCO)nc(N3CCCCC3)c2n1 | – | > 100 | – | – | – | – | – | – | – | > 100 | – | – | – | – | – | > 100 | – | > 100 | > 100 | –
7 | COc1ccc(-c2oc3c(OC)c(OC)c(OC)c(O)c3c(=O)c2OC)cc1O | < 0.01 | 12.3 | – | – | < 0.01 | 0.898 µM and 0.23 µM | – | 5.93 | – | – | – | 0.504 | – | 0.101 | < 0.01 | – | – | 0.221 | 5.81 | < 0.01
8 | O=S1(=O)c2cc(S(=O)(=O)n3ccnc3)ccc2NC2=NCCCN21 | – | > 100 | – | – | – | 41.5 µM | – | 62.3 | – | – | – | – | – | 40.1 | – | > 100 | – | – | > 100 | –
9 | COc1ccc2c(c1)C(=O)c1c-2c(N2CCN(C(=O)CCNCCNCCN)CC2)nc2ccccc12 | 9.51 | 29.4 | 5.11 | 21.6 | – | – | 16.9 | 33.7 | – | – | – | – | – | – | 2.03 | 3.83 | 12.4 | 37 | 30.4 | 10.5
10 | CN(C)CCN(C)C(=O)c1cccc2cccc(C(=O)O)c12 | – | > 100 | – | – | – | > 100 µM | – | > 100 | – | > 100 | – | > 100 | – | > 100 | – | > 100 | – | 38.7 | > 100 | –
